Data as given in ChEMBL document CHEMBL4024703, “Recent Progress in the Development of Transglutaminase 2 (TGase2) Inhibitors” (J Med Chem, 2017).

Legend:
Mus musculus [1] = assay: Antihypertensive activity in C57BL/6 mouse angiotensin 2-induced hypertensive nephrosclerosis model assessed as reduction in collagen deposition in kidney at 25 mg/kg/day administered sc with angiotensin 2 for 14 days by Sirius red/collagen staining based assay; format: functional; settings: C57BL/6, sc, 336 h
Mus musculus [2] = assay: Antihypertensive activity in C57BL/6 mouse angiotensin 2-induced hypertensive nephrosclerosis model assessed as reduction in collagen deposition in blood vessels at 25 mg/kg/day administered sc with angiotensin 2 for 14 days by Sirius red/collagen staining based assay; format: functional; settings: C57BL/6, sc, 336 h
[3] = molecular target: T1, Protein-glutamine gamma-glutamyltransferase (Homo sapiens, UniProt P21980); assay: Inhibition of recombinant human TG2 by fluorescence assay
T1 sequence (P21980 whole entry): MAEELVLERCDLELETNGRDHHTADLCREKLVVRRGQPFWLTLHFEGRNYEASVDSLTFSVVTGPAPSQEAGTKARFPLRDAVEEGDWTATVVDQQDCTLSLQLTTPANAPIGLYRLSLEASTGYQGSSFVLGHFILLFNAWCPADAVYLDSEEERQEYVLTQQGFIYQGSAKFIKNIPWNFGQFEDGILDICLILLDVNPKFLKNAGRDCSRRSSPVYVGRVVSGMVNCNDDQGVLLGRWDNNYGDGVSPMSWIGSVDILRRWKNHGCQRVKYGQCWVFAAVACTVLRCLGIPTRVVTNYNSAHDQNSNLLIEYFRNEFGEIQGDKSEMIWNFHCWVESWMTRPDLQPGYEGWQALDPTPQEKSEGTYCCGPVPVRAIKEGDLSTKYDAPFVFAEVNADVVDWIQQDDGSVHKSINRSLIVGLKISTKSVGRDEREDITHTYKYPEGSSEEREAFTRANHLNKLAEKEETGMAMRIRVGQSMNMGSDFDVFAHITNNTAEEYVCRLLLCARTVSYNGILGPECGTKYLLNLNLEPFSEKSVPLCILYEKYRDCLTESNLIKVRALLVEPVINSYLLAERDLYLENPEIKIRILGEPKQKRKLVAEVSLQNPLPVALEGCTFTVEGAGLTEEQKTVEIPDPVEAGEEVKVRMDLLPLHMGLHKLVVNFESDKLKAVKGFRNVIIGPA

Homo sapiens [4] = species: Homo sapiens; assay: Selectivity ratio of IC50 for human F13a to IC50 for human TG2
Homo sapiens [5] = species: Homo sapiens; assay: Selectivity ratio of IC50 for human TG1 to IC50 for human TG2
Homo sapiens [6] = species: Homo sapiens; assay: Selectivity ratio of IC50 for human TG3 to IC50 for human TG2
Homo sapiens [7] = species: Homo sapiens; assay: Selectivity ratio of IC50 for human TG6 to IC50 for human TG2
[8] = Metabolic stability in Wistar rat blood plasma after 15 mins by HPLC analysis; format: ADME, cell-free; settings: read-out: Stability
[9] = Metabolic stability in Wistar rat blood plasma after 45 mins by HPLC analysis; format: ADME, cell-free; settings: read-out: Stability

Structure (SMILES): C=CC(=O)NCC(=O)N1CCN(S(=O)(=O)c2cccc3c(N(C)C)cccc23)CC1
- inhibition in vivo at 25 mg/kg/day (Mus musculus [1]): 40%
- inhibition in vivo at 25 mg/kg/day (Mus musculus [2]): 45%
- IC50 [3]: 6 nM

Structure (SMILES): CCC(CC)CNC(=O)Cn1cccc(NC(=O)[C@H](CC/C=C/C(=O)OC)NC(=O)c2cncn2C)c1=O
- Ratio IC50 (Homo sapiens [4]): > 100
- Ratio IC50 (Homo sapiens [5]): > 100
- Ratio IC50 (Homo sapiens [6]): > 100
- Ratio IC50 (Homo sapiens [7]): > 100

Structure (SMILES): C=CC(=O)NCCCC[C@H](NC(=O)Cc1ccccc1)C(=O)N1CCN(c2cccc(C)n2)CC1
- remaining at 0.25 h [8]: 65%
- remaining at 0.75 h [9]: 29%
